According to patent US11185073B2, “Microbiocidal quinoline (thio)carboxamide derivatives” (SYNGENTA PARTICIPATIONS AG, priority 2017, dated 2021):

Assays:
[1] = tested on: Botryotinia fuckeliana (Botrytis cinerea); assay: Botryotinia fuckeliana (Botrytis cinerea) / liquid culture (gray mould); format: cell-based; settings: 72 h, growth inhibition photometrically 3-4 days after application, compared to untreated control
[2] = tested on: Glomerella lagenarium (Colletotrichum lagenarium); assay: Glomerella lagenarium (Colletotrichum lagenarium) / liquid culture (anthracnose); format: cell-based; settings: Colletotrichum orbiculare, growth inhibition photometrically 3-4 days after application, compared to untreated control
Fusarium culmorum [3] = assay: microbe, parasite or virus in culture; format: cell-based; settings: 72 h, read-out: control of Fusarium culmorum
[4] = tested on: Magnaporthe grisea (Pyricularia oryzae); assay: microbe, parasite or virus in culture; format: cell-based; settings: 72 h, read-out: control of Magnaporthe grisea
Fusarium culmorum [5] = assay: whole plant or invertebrate; format: in vivo; settings: in Triticum aestivum, read-out: control of Fusarium culmorum
[6] = tested on: Gibberella zeae (Fusarium graminearum); assay: whole plant or invertebrate; format: in vivo; settings: in Triticum aestivum, read-out: control of Gibberella zeae
[7] = tested on: Monographella nivalis (Microdochium nivale); assay: Monographella nivalis (Microdochium nivale) / liquid culture (foot rot cereals); format: cell-based; settings: 96 h, growth inhibition photometrically 4-5 days after application, compared to untreated control

CC(COC1CCC1)(CC(F)(F)F)NC(=O)c1cnc2c(F)cccc2c1 (centres unmarked) [E.021, N-[1-(cyclobutoxy-methyl)-3,3,3-trifluoro-1-methyl-propyl]-8-fluoro-quinoline-3-carboxamide]
≥ 80%: inhibition of growth at 20 ppm [1] | inhibition of growth at 20 ppm [2] | inhibition of growth at 20 ppm (Fusarium culmorum [3]) | inhibition of growth at 20 ppm [4]

CC(COC1CCCCC1)(CC(F)(F)F)NC(=O)c1cnc2c(F)cccc2c1 (centres unmarked) [E.027, N-[1-(cyclohexoxy-methyl)-3,3,3-trifluoro-1-methyl-propyl]-8-fluoro-quinoline-3-carboxamide]
≥ 80%: inhibition of growth at 20 ppm [1] | inhibition of growth at 20 ppm [2] | inhibition of growth at 20 ppm (Fusarium culmorum [3]) | pest or weed control at 200 ppm (Fusarium culmorum [5]) | pest or weed control at 200 ppm [6] | inhibition of growth at 20 ppm [7] | inhibition of growth at 20 ppm [4]

CC(C)CC(C)(COc1ccccc1)NC(=O)c1cnc2c(F)cccc2c1 (centres unmarked) [E.028, N-[1,3-dimethyl-1-(phenoxymethyl)-butyl]-8-fluoro-quinoline-3-carboxamide]
≥ 80%: inhibition of growth at 20 ppm [1] | inhibition of growth at 20 ppm [2] | inhibition of growth at 20 ppm (Fusarium culmorum [3]) | pest or weed control at 200 ppm (Fusarium culmorum [5]) | inhibition of growth at 20 ppm [7]

Cc1nc2c(F)cccc2cc1C(=O)NC(C)(COC1CCC1)CC(F)(F)F (centres unmarked) [E.009, N-[1-(cyclo-butoxymethyl)-3,3,3-trifluoro-1-methyl-propyl]-8-fluoro-2-methyl-qiuinoline-3-carboxamide]
≥ 80%: inhibition of growth at 20 ppm [1] | inhibition of growth at 20 ppm [2] | inhibition of growth at 20 ppm (Fusarium culmorum [3]) | inhibition of growth at 20 ppm [4]

C=C(C)COCC(C)(CC(C)C)NC(=O)c1cnc2c(F)cccc2c1 (centres unmarked) [E.020, N-[1,3-dimethyl-1-(2-methylallyloxy-methyl)butyl]-8-fluoro-quinoline-3-carboxamide]
≥ 80%: inhibition of growth at 20 ppm [1] | inhibition of growth at 20 ppm [2] | inhibition of growth at 20 ppm (Fusarium culmorum [3]) | pest or weed control at 200 ppm (Fusarium culmorum [5]) | pest or weed control at 200 ppm [6] | inhibition of growth at 20 ppm [7] | inhibition of growth at 20 ppm [4]

CC(COC1CCC1)(CC(F)(F)F)NC(=O)c1cnc2c(F)c(F)ccc2c1 (centres unmarked) [E.008, N-[1-(cyclo-butoxymethyl)-3,3,3-trifluoro-1-methyl-propyl]-7,8-difluoro-quinoline-3-carboxamide]
≥ 80%: inhibition of growth at 20 ppm [1] | inhibition of growth at 20 ppm [2] | inhibition of growth at 20 ppm (Fusarium culmorum [3]) | pest or weed control at 200 ppm (Fusarium culmorum [5]) | pest or weed control at 200 ppm [6] | inhibition of growth at 20 ppm [7] | inhibition of growth at 20 ppm [4]

CC(COC1CCCCC1)(CC(F)(F)F)NC(=O)c1cnc2c(F)cccc2c1 (stereo in doubt) [E.017, N-[(1S)-1-(cyclo-hexoxymethyl)-3,3,3-trifluoro-1-methyl-propyl]-8-fluoro-quinoline-3-carboxamide]
≥ 80%: pest or weed control at 200 ppm [6]

CC(COc1ccccc1)(CC(F)(F)F)NC(=O)c1cnc2c(F)cccc2c1 (centres unmarked) [E.019, 8-fluoro-N-[3,3,3-trifluoro-1-methyl-1-(phenoxy-methyl)propyl]-quinoline-3-carboxamide]
≥ 80%: inhibition of growth at 20 ppm [1] | inhibition of growth at 20 ppm [2] | inhibition of growth at 20 ppm (Fusarium culmorum [3]) | pest or weed control at 200 ppm (Fusarium culmorum [5]) | pest or weed control at 200 ppm [6] | inhibition of growth at 20 ppm [7] | inhibition of growth at 20 ppm [4]

CC1(CC(C)(COCc2ccccc2)NC(=O)c2cnc3c(F)cccc3c2)CC1 (centres unmarked) [E.018, N-[1-(benzyloxy-methyl)-1-methyl-2-(1-methylcyclo-propyl)ethyl]-8-fluoro-quinoline-3-carboxamide]
≥ 80%: inhibition of growth at 20 ppm [1] | inhibition of growth at 20 ppm (Fusarium culmorum [3]) | inhibition of growth at 20 ppm [7] | inhibition of growth at 20 ppm [4]

Cc1cccc2cc(C(=O)NC(C)(COC3CCC3)CC(F)(F)F)cnc12 (centres unmarked) [E.011]
≥ 80%: inhibition of growth at 20 ppm [1] | inhibition of growth at 20 ppm [2] | inhibition of growth at 20 ppm (Fusarium culmorum [3]) | pest or weed control at 200 ppm (Fusarium culmorum [5]) | inhibition of growth at 20 ppm [7] | inhibition of growth at 20 ppm [4]

C[C@@](COC1CCC1)(CC(F)(F)F)NC(=O)c1cnc2c(F)cccc2c1 [E.013, N-[(1S)-1-(cyclo-butoxymethyl)-3,3,3-trifluoro-1-methyl-propyl]-8-fluoro-quinoline-3-carboxamide]
≥ 80%: inhibition of growth at 20 ppm [1] | inhibition of growth at 20 ppm [2] | inhibition of growth at 20 ppm (Fusarium culmorum [3]) | pest or weed control at 200 ppm (Fusarium culmorum [5]) | inhibition of growth at 20 ppm [7]

CCCCCCCCC(C)(COC)NC(=O)c1cnc2c(F)cccc2c1 (centres unmarked) [E.033, 8-fluoro-N-[1-(methoxymethyl)-1-methyl-nonyl]-quinoline-3-carboxamide]
≥ 80%: inhibition of growth at 20 ppm [1] | inhibition of growth at 20 ppm [2] | inhibition of growth at 20 ppm (Fusarium culmorum [3]) | pest or weed control at 200 ppm [6] | inhibition of growth at 20 ppm [7]

CC(C)CC(C)(COC1CCCCC1)NC(=O)c1cnc2c(F)cccc2c1 (centres unmarked) [E.029, N-[1-(cyclohexoxy-methyl)-1,3-dimethyl-butyl]-8-fluoro-quinoline-3-carboxamide]
≥ 80%: inhibition of growth at 20 ppm [1] | inhibition of growth at 20 ppm [2] | inhibition of growth at 20 ppm (Fusarium culmorum [3]) | pest or weed control at 200 ppm (Fusarium culmorum [5]) | inhibition of growth at 20 ppm [7] | inhibition of growth at 20 ppm [4]

CC(COC1CCC1)(CC(F)(F)F)NC(=O)c1cnc2c(F)cccc2c1 (stereo in doubt) [E.014, N-[(1S)-1-(cyclo-butoxymethyl)-3,3,3-trifluoro-1-methyl-propyl]-8-fluoro-quinoline-3-carboxamide]
≥ 80%: inhibition of growth at 20 ppm [1] | inhibition of growth at 20 ppm [2] | inhibition of growth at 20 ppm (Fusarium culmorum [3]) | pest or weed control at 200 ppm (Fusarium culmorum [5]) | pest or weed control at 200 ppm [6]

CC(COC1(C)CCCC1)(CC(F)(F)F)NC(=O)c1cnc2c(F)cccc2c1 (centres unmarked) [E.010]
≥ 80%: inhibition of growth at 20 ppm [1] | inhibition of growth at 20 ppm [2] | inhibition of growth at 20 ppm (Fusarium culmorum [3]) | pest or weed control at 200 ppm (Fusarium culmorum [5]) | pest or weed control at 200 ppm [6] | inhibition of growth at 20 ppm [7]

CC(C)(C)CC(C)(COCC1CC1)NC(=O)c1cnc2c(F)cccc2c1 (centres unmarked) [E.006, N-[1-(cyclo-propylmethoxy-methyl)-1,3,3-trimethylbutyl]-8-fluoro-quinoline-3-carboxamide]
≥ 80%: inhibition of growth at 20 ppm [1] | inhibition of growth at 20 ppm [2] | inhibition of growth at 20 ppm (Fusarium culmorum [3]) | pest or weed control at 200 ppm (Fusarium culmorum [5]) | inhibition of growth at 20 ppm [7] | inhibition of growth at 20 ppm [4]

CC(C)CC(C)(COC(C)C)NC(=O)c1cnc2c(F)cccc2c1 (centres unmarked) [E.024, 8-fluoro-N-[1-(iso-propoxymethyl)-1,3-dimethyl-butyl]quinoline-3-carboxamide]
≥ 80%: inhibition of growth at 20 ppm [1] | inhibition of growth at 20 ppm [2] | inhibition of growth at 20 ppm (Fusarium culmorum [3]) | pest or weed control at 200 ppm (Fusarium culmorum [5]) | pest or weed control at 200 ppm [6] | inhibition of growth at 20 ppm [4]

CC(COC1(C)CCCCC1)(CC(F)(F)F)NC(=O)c1cnc2c(F)cccc2c1 (centres unmarked) [E.015, 8-fluoro-N-[3,3,3-trifluoro-1-methyl-1-[(1-methylcyclo-hexoxy)methyl]-propyl]quinoline-3-carboxamide]
≥ 80%: inhibition of growth at 20 ppm [1] | inhibition of growth at 20 ppm [2] | inhibition of growth at 20 ppm (Fusarium culmorum [3]) | inhibition of growth at 20 ppm [4]

CC(C)CC(C)(COC1CCCC1)NC(=O)c1cnc2c(F)cccc2c1 (centres unmarked) [E.031, N-[1-(cyclopentoxy-methyl)-1,3-dimethyl-butyl]-8-fluoro-quinoline-3-carboxamide]
≥ 80%: inhibition of growth at 20 ppm [1] | inhibition of growth at 20 ppm [2] | inhibition of growth at 20 ppm (Fusarium culmorum [3]) | pest or weed control at 200 ppm (Fusarium culmorum [5]) | inhibition of growth at 20 ppm [7] | inhibition of growth at 20 ppm [4]

CCC(CC)OCC(C)(CC(C)C)NC(=O)c1cnc2c(F)cccc2c1 (centres unmarked) [E.022, N-[1-(1-ethyl-propoxymethyl)-1,3-dimethyl-butyl]-8-fluoro-quinoline-3-carboxamide]
≥ 80%: inhibition of growth at 20 ppm [1] | inhibition of growth at 20 ppm [2] | inhibition of growth at 20 ppm (Fusarium culmorum [3]) | pest or weed control at 200 ppm (Fusarium culmorum [5]) | inhibition of growth at 20 ppm [7] | inhibition of growth at 20 ppm [4]
